Assay results as given in publication PMC12305662, “Fragment-Based Development of Small Molecule Inhibitors Targeting Mycobacterium tuberculosis Cholesterol Metabolism” (Journal of Medicinal Chemistry, 2025).
Values after ≈ are worked out from the molar mass of the structure shown. Where two headings read alike, the source gives them in different places.

Columns and labels:
CYP142 [1] = molecular target: T1, CYP142 (Mycobacterium tuberculosis, UniProt P9WPL5); conditions: compound 100 µM, P450 5 µM
T1 sequence (P9WPL5 whole entry): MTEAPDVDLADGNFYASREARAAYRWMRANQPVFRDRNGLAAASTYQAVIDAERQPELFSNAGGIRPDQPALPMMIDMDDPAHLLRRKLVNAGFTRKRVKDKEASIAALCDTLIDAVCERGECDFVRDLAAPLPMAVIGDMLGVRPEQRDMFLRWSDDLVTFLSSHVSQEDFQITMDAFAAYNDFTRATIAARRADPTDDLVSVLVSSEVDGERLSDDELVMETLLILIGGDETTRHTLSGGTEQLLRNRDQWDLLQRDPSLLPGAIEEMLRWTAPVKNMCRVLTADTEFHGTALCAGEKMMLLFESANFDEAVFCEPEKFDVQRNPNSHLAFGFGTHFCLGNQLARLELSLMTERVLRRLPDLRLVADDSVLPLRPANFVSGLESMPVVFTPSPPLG

CYP125 [2] = molecular target: T2, CYP125 (Mycobacterium tuberculosis, UniProt P9WPP1); assay type: binding; conditions: compound 100 µM, P450 5 µM; for CYP125 Δλmax (nm) LS: low spin population, '-' = no LS maxima present
T2 sequence (P9WPP1 whole entry): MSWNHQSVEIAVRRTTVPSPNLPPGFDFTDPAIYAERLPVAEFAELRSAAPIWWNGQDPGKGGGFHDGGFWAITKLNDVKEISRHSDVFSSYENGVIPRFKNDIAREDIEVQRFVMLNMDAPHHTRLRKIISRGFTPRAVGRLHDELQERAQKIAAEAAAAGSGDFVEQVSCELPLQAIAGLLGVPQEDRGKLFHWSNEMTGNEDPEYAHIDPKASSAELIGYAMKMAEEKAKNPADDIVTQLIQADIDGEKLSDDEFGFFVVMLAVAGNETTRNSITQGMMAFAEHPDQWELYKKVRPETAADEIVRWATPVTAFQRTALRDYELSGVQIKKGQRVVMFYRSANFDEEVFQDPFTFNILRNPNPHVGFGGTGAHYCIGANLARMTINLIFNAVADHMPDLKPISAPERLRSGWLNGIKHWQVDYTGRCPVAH

CYP125 [3] = molecular target: T2, CYP125; test: biochemical; assay type: binding; conditions: read-out: KD (μM) CYP125
CYP142 [4] = molecular target: T1, CYP142; test: biochemical
CYP125 [5] = molecular target: T2, CYP125; test: LC-MS substrate turnover assay (cholest-4-en-3-one); assay type: biochemical; conditions: for IC50: CYP125 0.5 μM, cholest-4-en-3-one 5 µM, LC-MS, read-out: CYP125A1 IC50; for Ki: estimated by Cheng-Prusoff, cholest-4-en-3-one Km CYP125 = 2.1 µM, read-out: CYP125A1 KI
Mtb CDC1551 [6] = test: Depletion of intracellular ATP (BacTiter Glo), Mtb on cholesterol; assay type: cell-based; conditions: Mycobacterium tuberculosis, cholesterol as sole carbon source
Mtb CDC1551 [7] = test: Extracellular Mtb growth on cholesterol, MABA MIC99; assay type: cell-based, Mycobacterium tuberculosis; conditions: cholesterol as sole carbon source, 2 weeks post-compound treatment, read-out: MABA-MIC99 (W2) CDC1551, cholesterol
Mtb H37Rv [8] = test: as above; assay type: cell-based, Mycobacterium tuberculosis; conditions: cholesterol as sole carbon source, 2 weeks post-compound treatment, read-out: MABA-MIC99 (W2) H37Rv, cholesterol
Mtb H37Rv [9] = test: Depletion of intracellular ATP (BacTiter Glo), Mtb on cholesterol; assay type: cell-based, Mycobacterium tuberculosis; conditions: cholesterol as sole carbon source
Mtb CDC1551 [10] = test: Depletion of intracellular ATP, Mtb on glucose; conditions: read-out: ATP IC50 (W1) CDC1551, glucose media; glucose as sole carbon source; 1 week
Method: (§1) (Mtb) H37Rv or CDC1551 strains were grown in Middlebrook 7H9 broth medium (Difco) supplemented with 0.3 g/L casitone, 0.81 g/L NaCl, 0.05% (v/v) tyloxapol, and either 97 mg/L cholesterol, 4 g/L glucose, or 0.2% glycerol. For inhibitor assays, a 10-fold serial dilution of the test compounds was made in the desired medium in duplicate rows of a 96-well plate. Mtb cells were then added to all the wells at the final concentration of 1 × 10^4 CFU, and plates were incubated at 37 °C for up to 15 days. Minimum inhibitory concentrations (MIC99) were determined using the Microplate Alamar Blue Assay (MABA) on day 15.
(§2) BacTiter Glo reagent (Promega) was added to microtiter plates (1:10 dilution) and luminescence was recorded after 15 min of incubation at room temperature. […] Isoniazid or p-amino salicylic acid were used as positive control compounds for all experiments. Reported MIC and IC50 values are the mean of duplicate treatments.

Mtb H37Rv [11] = tested on: Mtb H37Rv
Method: as §1, §2

[12] = CDC1551, 168 h, 1 week post-compound treatment, read-out: ATP-IC50 (W1) CDC1551, cholesterol
[13] = CDC1551, 336 h, 2 weeks post-compound treatment, read-out: ATP-IC50 (W2) CDC1551, cholesterol
[14] = Mycobacterium tuberculosis, CDC1551, 336 h
[15] = Mycobacterium tuberculosis, H37RV, 336 h
[16] = Mycobacterium tuberculosis, H37RV, 168 h, 1 week post-compound treatment, read-out: ATP-IC50 (W1) H37Rv, cholesterol
[17] = Mycobacterium tuberculosis, H37RV, 336 h, 2 weeks post-compound treatment, read-out: ATP-IC50 (W2) H37Rv, cholesterol

SMILES | CYP142 Δλmax (nm) (CYP142 [1]) | CYP125 Δλmax (nm) LS (CYP125 [2]) [nm] | Kd (CYP125 [3]) [µM] | Kd (CYP142 [4]) [µM] | IC50 (CYP125 [5]) [µM] | Ki (CYP125 [5]) [µM] | IC50 (Mtb CDC1551 [6]; [12]) [µM] | IC50 (Mtb CDC1551 [6]; [13]) [µM] | MIC99 (Mtb CDC1551 [7]; [14]) [µM] | MIC99 (Mtb H37Rv [8]; [15]) [µM] | IC50 (Mtb H37Rv [9]; [16]) [µM] | IC50 (Mtb H37Rv [9]; [17]) [µM] | IC50 (Mtb H37Rv [9]; 1 week post-compound treatment, read-out: ATP-IC50 (W1) H37Rv, cholesterol) [µM] | IC50 (Mtb CDC1551 [10]) [µM] | CYP125 LS/HS (CYP125 [2]; ratio of low spin to high spin CYP125) | IC50 (Mtb H37Rv [11]) [µM] | MIC99 (Mtb CDC1551 [7]) [µM] | MIC99 (Mtb H37Rv [8]) [µM]
CC(=O)Nc1ccc(Cc2ccncc2)cc1 [3f, N-(4-(Pyridin-4-ylmethyl)phenyl)acetamide] | 2 | 13 | 18 ± 0.56 | 1.4 ± 0.36 | – | – | – | – | – | – | – | – | – | – | – | – | – | –
O=C(NCc1ccc2[nH]ccc2c1)c1cccc(Nc2ccncc2)c1 [5g, N-((1H-Indol-5-yl)methyl)-3-(pyridin-4-ylamino)benzamide] | – | – | 3.8 ± 0.18 | – | 25 ± 2.4 | 7.1 | 9.4 | 38 | 25 (≈ 8.56 µg/mL) | 13 (≈ 4.45 µg/mL) | < 5 | 9.4 | 4.7 | – | – | – | – | –
O=C(NCc1ccc2[nH]ccc2c1)c1cccc(Cc2ccncc2)c1 [5e, N-((1H-Indol-5-yl)methyl)-3-(pyridin-4-ylmethyl)benzamide] | – | – | 4 ± 0.36 | – | 9.2 ± 0.89 | 2.7 | 0.07 | 19 | 6.3 (≈ 2.15 µg/mL) | 13 (≈ 4.44 µg/mL) | 2.3 | 19 | – | – | – | – | – | –
C[C@@H](NC(=O)c1ccc(Cc2ccncc2)cc1)c1ccccc1 [5i, (R)-N-(1-Phenylethyl)-4-(pyridin-4-ylmethyl)benzamide] | – | – | 7.4 ± 1 | 0.64 ± 0.47 | 33 ± 3.7 | 9.8 | 2.3 | 38 | 25 (≈ 7.91 µg/mL) | 25 (≈ 7.91 µg/mL) | 9.4 | 4.7 | – | 19 | – | – | – | –
CS(=O)(=O)Nc1ccc(Cc2ccncc2)cc1 [3g] | 0 | 30 | 0.23 ± 0.04 | 1.1 ± 0.14 | – | – | – | – | – | – | – | – | – | – | 2.7 | – | – | –
COc1ccc(C(C)Nc2ccc(Cc3ccncc3)cc2)cc1 (centres unmarked) [5o, N-(1-(4-Methoxyphenyl)ethyl)-4-(pyridin-4-ylmethyl)aniline] | – | – | 0.8 ± 0.32 | – | 4.2 ± 0.48 | 1.2 | – | – | – | 19 (≈ 6.05 µg/mL) | 0.15 | 0.59 | – | – | – | 2.3 | – | –
O=C(Nc1ccc(Nc2ccncc2)cc1)c1ccccc1 [5b, N-(4-(Pyridin-4-ylamino)phenyl)benzamide] | – | – | 11 ± 1.8 | 2.83 ± 0.001 | – | – | – | – | – | – | – | – | – | – | – | – | – | –
COc1ccc(CNc2ccc(N(C)c3ccncc3)cc2)cc1 [5n, N^1-(4-Methoxybenzyl)-N^4-methyl-N^4-(pyridin-4-yl)benzene-1,4-diamine] | – | – | 2.9 ± 0.2 | 0.2 ± 0.01 | 12 ± 1.2 | 3.6 | – | – | – | 50 (≈ 16 µg/mL) | 4.7 | 9.4 | – | – | – | – | – | –
O=C(Nc1ccc(Cc2ccncc2)cc1)c1ccccc1 [5a, N-(4-(Pyridin-4-ylmethyl)phenyl)benzamide] | – | – | 0.54 ± 0.22 | 1.1 ± 0.1 | 4.3 ± 0.5 | 1.3 | 19 | 38 | > 50 | 25 (≈ 7.21 µg/mL) | 19 | 38 | – | – | – | – | >50 | –
CS(=O)(=O)c1cccc(CNc2ccc(Cc3ccncc3)cc2)c1 [5p, N-(3-(Methylsulfonyl)benzyl)-4-(pyridin-4-ylmethyl)aniline] | – | – | 0.35 ± 0.19 | – | 10 ± 0.95 | 3.1 | 2.3 | 19 | 13 (≈ 4.58 µg/mL) | 13 (≈ 4.58 µg/mL) | 1.2 | 4.7 | – | – | – | – | – | –
CN(c1ccncc1)c1ccc(NC(=O)c2ccccc2)cc1 [5c, N-(4-(Methyl(pyridin-4-yl)amino)phenyl)benzamide] | – | – | 7 ± 0.21 | 3.1 ± 0.18 | 26 ± 2.4 | 7.7 | – | – | – | > 50 | 9.4 | 19 | – | – | – | – | – | >50
C[C@@H](NC(=O)c1cccc(Cc2ccncc2)c1)c1ccccc1 [5h, (R)-N-(1-Phenylethyl)-3-(pyridin-4-ylmethyl)benzamide] | – | – | 40 ± 2 | 3.3 ± 0.29 | – | – | 2.3 | 38 | 25 (≈ 7.91 µg/mL) | 25 (≈ 7.91 µg/mL) | 9.4 | 19 | – | 19 | – | – | – | –
